From the supplement of paper PMC13380429

Tests used:
Conditions in all cases: 72 h
[1] = system: HepG2; test: cell viability relative to DMSO; higher = less toxic
[2] = system: U2OS; test: as above
[3] = system: Vero E6; test: as above
[4] = system: Caco-2; test: as above
[5] = system: Calu-3; test: as above
[6] = system: HepG2; test: relative viability EC50 (midpoint between 100% and the lowest measured viability); higher = less toxic
[7] = system: U2OS; test: as above
[8] = system: Vero E6; test: as above
[9] = system: Caco-2; test: as above
[10] = system: Calu-3; test: as above
[11] = system: HepG2; test: drug sensitivity score (DSS) for viability; higher = more toxic; extreme values may be limits of the assay
[12] = system: U2OS; test: as above
[13] = system: Vero E6; test: as above
[14] = system: Caco-2; test: as above
[15] = system: Calu-3; test: as above

SMILES	cell viability ([1]; 1 nM) [%]	cell viability ([1]; 10 nM) [%]	cell viability ([1]; 100 nM) [%]	cell viability ([1]; 1000 nM) [%]	cell viability ([1]; 10000 nM) [%]	cell viability ([2]; 1 nM) [%]	cell viability ([2]; 10 nM) [%]	cell viability ([2]; 100 nM) [%]	cell viability ([2]; 1000 nM) [%]	cell viability ([2]; 10000 nM) [%]	cell viability ([3]; 1 nM) [%]	cell viability ([3]; 10 nM) [%]	cell viability ([3]; 100 nM) [%]	cell viability ([3]; 1000 nM) [%]	cell viability ([3]; 10000 nM) [%]	cell viability ([4]; 1 nM) [%]	cell viability ([4]; 10 nM) [%]	cell viability ([4]; 100 nM) [%]	cell viability ([4]; 1000 nM) [%]	cell viability ([4]; 10000 nM) [%]	cell viability ([5]; 1 nM) [%]	cell viability ([5]; 10 nM) [%]	cell viability ([5]; 100 nM) [%]	cell viability ([5]; 1000 nM) [%]	cell viability ([5]; 10000 nM) [%]	relative viability EC50 [6] [µM]	relative viability EC50 [7] [µM]	relative viability EC50 [8] [µM]	relative viability EC50 [9] [µM]	relative viability EC50 [10] [µM]	drug sensitivity score [11]	drug sensitivity score [12]	drug sensitivity score [13]	drug sensitivity score [14]	drug sensitivity score [15]
C=C(C)[C@@H]1CC[C@]2(C(=O)O)CC[C@]3(C)[C@H](CC[C@@H]4[C@@]5(C)CC[C@H](OC(=O)CC(C)(C)C(=O)O)C(C)(C)[C@@H]5CC[C@]43C)[C@@H]12 [bevirimat-dimeglumine]	91.3	99.5	103	94.1	96.7	99.4	98.5	99.6	98.2	96.8	96.8	103	96.9	94.7	102	92	95.6	94.1	102	94.9	99.1	103	102	92.9	110	> 10	> 10	> 10	> 10	> 10	0	0	0	0	0
CC(C)(Oc1ccc(Cl)cc1)C(=O)O [clofibric-acid]	93.7	106	95.6	105	96.2	101	95.1	99.9	94.9	99.2	102	101	97.7	93.3	94.2	95.5	96.6	101	99.3	99.1	94.2	96.5	100	92.5	96.2	> 10	> 10	> 10	> 10	> 10	0	0	0	0	0
COc1ccc(CN2CCN(C(c3ccc(F)cc3)c3ccc(F)cc3)CC2)c(OC)c1OC [lomerizine]	110	102	102	93	106	89.7	99.3	90.3	95.1	99.1	92.7	96.5	91.7	93.7	96.7	96.9	104	87.9	98.8	82.7	88.9	98.3	94	139	96	> 10	> 10	> 10	> 10	> 10	0	0	0	0.3	0
O=C(O)C1=CO[C@@H](O[C@@H]2O[C@H](CO)[C@@H](O)[C@H](O)[C@H]2O)[C@@H]2C(CO)=CC[C@H]12 [Geniposidic acid]	110	105	102	111	94.6	102	96.2	101	94.5	101	100	107	97.5	104	101	117	101	106	103	96.3	98.7	103	95.4	113	108	> 10	> 10	> 10	> 10	> 10	0	0	0	0	0
CCCCCCCCCCCCCCCCCC(=O)OCC(O)CO (stereo not given) [monostearin]	104	103	97.1	96.5	102	97.8	96.5	92	104	93.8	99.9	106	96.3	99.5	100	100	96.9	89.6	100	96.9	103	101	83.9	105	94.8	> 10	> 10	> 10	> 10	> 10	0	0	0	0	0
N[C@@H](CC(=O)N1CCn2c(nnc2C(F)(F)F)C1)Cc1n[nH]c2c(F)c(F)ccc12 [PK-44]	102	92	114	91.5	91	102	100	99.4	104	99.7	102	103	104	98.4	100	87.8	96.3	102	105	92.4	95.3	96.6	95.8	100	100	> 10	> 10	> 10	> 10	> 10	0	0	0	0	0
Nc1nc(CC(=O)Nc2ccc(CCNC[C@H](O)c3ccccc3)cc2)cs1 [mirabegron]	104	96.6	104	93.2	102	102	98.2	93.6	102	97.5	99.1	96.3	101	93.2	103	99.8	100	97.7	108	92.2	93.8	97	100	110	108	> 10	> 10	> 10	> 10	> 10	0	0	0	0	0
COc1c2ccoc2cc2oc(=O)ccc12 [bergapten]	95.7	85.8	90	102	96.3	95.4	106	93.2	97.4	102	103	105	99.8	98.4	82	82.4	94.1	94.3	99.4	88.3	105	119	108	103	99	> 10	> 10	> 10	> 10	> 10	0	0	0.6	0	0
CO/N=C(\C(=O)N[C@@H]1C(=O)N2C(C(=O)OCOC(=O)C(C)(C)C)=C(/C=C\c3scnc3C)CS[C@H]12)c1csc(N)n1 [cefditoren-pivoxil]	91	99.7	97.3	103	84.2	103	108	103	96.6	100	94.7	98.9	94.2	92.7	91.9	104	97.5	105	99.1	90.9	96.9	105	86.3	101	106	> 10	> 10	> 10	> 10	> 10	0.2	0	0	0	0
C[C@]1(COc2ccc(N3CCC(Oc4ccc(OC(F)(F)F)cc4)CC3)cc2)Cn2cc([N+](=O)[O-])nc2O1 [delamanid]	96.5	97.8	92.6	99.5	104	105	98.2	103	98.3	102	104	102	101	102	99.8	103	96.9	103	90.5	94.3	93	98	103	91.9	102	> 10	> 10	> 10	> 10	> 10	0	0	0	0	0
CCC(=O)O[C@@H]1CC(=O)O[C@H](C)C/C=C/C=C/[C@H](OC(C)=O)[C@H](C)C[C@H](CC=O)[C@H](O[C@@H]2O[C@H](C)[C@@H](O[C@H]3C[C@@](C)(OC(C)=O)[C@@H](OC(=O)CC)[C@H](C)O3)[C@H](N(C)C)[C@H]2O)[C@H]1OC [miocamycin]	96.2	90.8	103	90.6	90	96.9	98.7	97.9	99.7	92.4	97.5	96.8	96.4	99.1	96.7	98.4	102	96.5	96.5	85.6	91.1	104	85.1	92.8	82.4	> 10	> 10	> 10	> 10	> 10	0	0	0	0.4	0.9
COc1cc2c(Oc3ccc(NC(=O)C4(C(=O)Nc5ccc(F)cc5)CC4)cc3F)ccnc2cc1OCCCN1CCOCC1 [foretinib]	94.7	95.7	101	47.8	0.1	103	99.1	94.2	75.1	0	102	97.9	102	74.3	0.2	102	98.6	97.2	70.3	5.3	99.7	98.6	96.9	84.7	5.1	0.965	1.55	1.52	1.37	1.92	11.9	9.3	9.4	9.5	7.8
COC(=O)c1cc(OC)c2c(c1-c1c(C(=O)OC)cc(OC)c3c1OCO3)OCO2 [bifendate]	94.8	84	93.2	93.8	90.4	99.3	99.3	97.6	99.5	101	105	105	105	94.6	107	112	104	98.4	102	89.6	94.4	98.1	101	106	104	> 10	> 10	> 10	> 10	> 10	0	0	0	0	0
O=c1ccc2ccc(O)c(O)c2o1 [daphnetin]	102	105	87.3	87.5	82.1	111	108	101	102	99.4	106	100	98.3	93	101	105	105	104	107	90.5	101	111	102	99.9	110	> 10	> 10	> 10	> 10	> 10	3.3	0	0	0	0
Nc1n[nH]c2nc3ccccc3nc12 [CDK1-5-inhibitor]	102	98.6	107	101	104	86.3	95.2	95.9	100	102	99.8	96.1	100	100	97.4	101	105	97.8	96.2	104	98.3	102	97.1	86	90.6	> 10	> 10	> 10	> 10	> 10	0	0	0	0	1.4
C=CC(=O)N1CCC[C@@H](n2nc(-c3ccc(Oc4ccccc4)cc3)c3c(N)ncnc32)C1 [ibrutinib]	97	99.1	104	97.2	95.3	101	100	98.6	97.6	100	99.4	95.5	101	98.7	92.1	103	97.3	101	96.8	101	100	92	94.5	98.3	103	> 10	> 10	> 10	> 10	> 10	0	0	0	0	0
CN(C)CCCSC(=N)N [dimaprit]	99	106	99.1	104	93.2	98.5	103	95.1	96.2	96.8	99.9	98.8	103	100	96.2	99	102	93.9	96.3	97.4	109	103	109	99.1	96.7	> 10	> 10	> 10	> 10	> 10	0	0	0	0	0
CC(=O)OCC(=O)[C@@]12N=C(C)O[C@@H]1C[C@H]1[C@@H]3CCC4=CC(=O)C=C[C@]4(C)[C@H]3[C@@H](O)C[C@@]12C [Deflazacort (Calcort)]	109	103	110	102	95.9	99.7	95.6	99.7	94.4	97.7	99.1	99	102	102	102	97.8	93.3	92.8	101	97.9	102	92.9	97.2	80.9	93.1	> 10	> 10	> 10	> 10	> 10	0	0	0	0	0.4
CC(=O)Nc1cccc(Nc2ncnc(N3CCC(OCc4ccc(OC(F)(F)F)cc4)CC3)n2)c1C [TC-N-1752]	105	95.8	93	104	31.5	96	98.7	95.2	94.4	99.3	95.8	102	100	94.4	107	94.7	97.8	94.5	101	80.4	93.9	102	87.1	97.8	107	3.47	> 10	> 10	> 10	> 10	3.4	0	0	0.5	0
CCCCCCCCCCCCCCCC[n+]1ccn(Cc2ccccc2)c1C [NH125]	96.3	106	97.2	32.6	0	105	93.7	95.9	57.1	0.1	104	106	99.5	85.2	0.3	100	92.4	97	59.9	0.8	99.2	99.1	89.7	82.1	23.3	0.682	1.16	1.99	1.2	1.64	13.6	10.7	8	10.5	7
NC1CCN(c2cccc(Cl)n2)CC1	94.8	100	102	111	101	101	101	101	102	95.2	101	100	94.3	96	96.2	95.9	97	96.6	103	96.5	89.4	93	99.5	87.9	102	> 10	> 10	> 10	> 10	> 10	0	0	0	0	0
